Literature values as cited in US20090233914A1, “Composition for treatment of nail infections” (Ondine International, Ltd., priority 2008, published 2009).

System: onychomycosis
Conditions: for side effects: human, in vivo, po

| Structure (SMILES) | side effects | effectiveness of treatment of onychomycosis (oral medicine) | nail clearing in patients for one year (oral, once a day for 90 days) |
| --- | --- | --- | --- |
| OC(Cn1cncn1)(Cn1cncn1)c1ccc(F)cc1F [Fluconazole] | severe side effects |  |  |
| COC1=CC(=O)C[C@@H](C)[C@]12Oc1c(Cl)c(OC)cc(OC)c1C2=O [Griseofulvin] | undesired side effects | largely ineffectual |  |
| CN(C/C=C/C#CC(C)(C)C)Cc1cccc2ccccc12 [Lamisil, terbinafine] |  |  | 70-80 % of patients |
| CCC(C)n1ncn(-c2ccc(N3CCN(c4ccc(OCC5COC(Cn6cncn6)(c6ccc(Cl)cc6Cl)O5)cc4)CC3)cc2)c1=O (centres unmarked) [itraconazole] | somewhat severe |  |  |
